Source: patent publication US20210307271A1, “OPTIMIZATION OF ALGAL PRODUCT PRODUCTION THROUGH UNCOUPLING CELL PROLIFERATION AND ALGAL PRODUCT PRODUCTION” (priority 2008, published 2021)

How the values were obtained:
Format in all cases: cell-based
Design in all cases: unit not given here
[1] = tested on: Chlorella protothecoides; experiment: Effect of hormone concentrations on growth rate, photoheterotrophic conditions, 48 hours; details: control 1.05 ± 0.020
[2] = tested on: Scenedesmus obliquus; experiment: Effect of hormone concentrations on growth rate, heterotrophic conditions, 48 hours; details: control 0.35 ± 0.023
[3] = tested on: Scenedesmus obliquus; experiment: Effect of hormone concentrations on growth rate, photoheterotrophic conditions, 48 hours; details: control 0.41 ± 0.042
[4] = tested on: Chlorella protothecoides; experiment: Effect of hormone concentrations on growth rate, heterotrophic conditions, 48 hours; details: control 1.54 ± 0.080

Row | SMILES | growth rate ([1]; hormone 0.01 ng) | growth rate ([1]; hormone 0.1 ng) | growth rate ([1]; hormone 1 ng) | growth rate ([1]; hormone 10 ng) | growth rate ([1]; hormone 100 ng) | growth rate ([2]; hormone 0.01 ng) | growth rate ([2]; hormone 0.1 ng) | growth rate ([2]; hormone 1 ng) | growth rate ([2]; hormone 10 ng) | growth rate ([2]; hormone 100 ng) | growth rate ([3]; hormone 0.01 ng) | growth rate ([3]; hormone 0.1 ng) | growth rate ([3]; hormone 1 ng) | growth rate ([3]; hormone 10 ng) | growth rate ([3]; hormone 100 ng) | growth rate ([4]; hormone 0.01 ng) | growth rate ([4]; hormone 0.1 ng) | growth rate ([4]; hormone 1 ng) | growth rate ([4]; hormone 10 ng) | growth rate ([4]; hormone 100 ng)
1 | O=C(O)Cc1c[nH]c2ccccc12 [Indole-3-acetic acid, indole-3-acetic acid] | 1.06 ± 0.030 | 1.05 ± 0.019 | 0.97 ± 0.020 | 1.13 ± 0.019 | 1.02 ± 0.061 | 0.23 ± 0.020 | 0.36 ± 0.127 | 0.42 ± 0.081 | 0.47 ± 0.020 | 0.41 ± 0.053 | 0.42 ± 0.020 | 0.47 ± 0.061 | 0.49 ± 0.030 | 0.49 ± 0.023 | 0.62 ± 0.092 | 1.62 ± 0.133 | 1.61 ± 0.072 | 1.49 ± 0.122 | 1.60 ± 0.099 | 1.60 ± 0.076
2 | O=C(O)Cc1cccc2ccccc12 [1-Naphthaleneacetic acid, 1-naphthaleneacetic acid] | 1.00 ± 0.058 | 1.02 ± 0.050 | 1.05 ± 0.035 | 1.07 ± 0.028 | 1.16 ± 0.152 | 0.26 ± 0.042 | 0.28 ± 0.011 | 0.33 ± 0.020 | 0.28 ± 0.099 | 0.39 ± 0.053 | 0.84 ± 0.087 | 0.85 ± 0.042 | 0.81 ± 0.042 | 0.80 ± 0.141 | 0.73 ± 0.046 | 1.66 ± 0.140 | 1.54 ± 0.081 | 1.62 ± 0.136 | 1.57 ± 0.028 | 1.62 ± 0.064
3 | C=C1C[C@]23C[C@@]1(O)CC[C@H]2[C@@]12C=C[C@H](O)[C@@](C)(C(=O)O1)[C@H]2[C@@H]3C(=O)O [Gibberellic acid] | 1.06 ± 0.011 | 1.02 ± 0.046 | 1.00 ± 0.030 | 1.09 ± 0.122 | 1.10 ± 0.070 | 0.44 ± 0.083 | 0.50 ± 0.046 | 0.43 ± 0.020 | 0.36 ± 0.050 | 0.42 ± 0.064 | 0.59 ± 0.064 | 0.47 ± 0.081 | 0.56 ± 0.087 | 0.56 ± 0.141 | 0.51 ± 0.110 | 1.52 ± 0.201 | 1.52 ± 0.151 | 1.46 ± 0.090 | 1.52 ± 0.099 | 1.46 ± 0.050
4 | O=C(O)COc1ccc(Cl)cc1Cl [2,4-Dichlorophenoxyacetic, 2,4-dichlorophenoxyacetic acid] | 1.09 ± 0.035 | 1.08 ± 0.133 | 1.01 ± 0.035 | 1.08 ± 0.030 | 1.03 ± 0.069 | 0.28 ± 0.030 | 0.23 ± 0.040 | 0.31 ± 0.020 | 0.24 ± 0.081 | 0.23 ± 0.040 | 0.42 ± 0.035 | 0.44 ± 0.000 | 0.47 ± 0.023 | 0.44 ± 0.028 | 0.33 ± 0.042 | 1.40 ± 0.061 | 1.53 ± 0.069 | 1.43 ± 0.069 | 1.31 ± 0.087 | 1.50 ± 0.081
5 | c1coc(CNc2ncnc3[nH]cnc23)c1 [Kinetin, kinetin] | 1.08 ± 0.023 | 1.10 ± 0.042 | 1.02 ± 0.011 | 1.18 ± 0.050 | 1.19 ± 0.035 | 0.28 ± 0.061 | 0.26 ± 0.076 | 0.36 ± 0.042 | 0.31 ± 0.028 | 0.28 ± 0.076 | 0.57 ± 0.133 | 0.73 ± 0.042 | 0.92 ± 0.113 | 0.37 ± 0.070 | 0.36 ± 0.060 | 1.60 ± 0.050 | 1.50 ± 0.050 | 1.44 ± 0.110 | 1.60 ± 0.070 | 1.58 ± 0.061
6 | c1ccc(CNc2ncnc3nc[nH]c23)cc1 [6-Benzylaminopurine, 6-benzylaminopurine] | 1.00 ± 0.030 | 1.12 ± 0.011 | 1.07 ± 0.035 | 1.04 ± 0.083 | 1.08 ± 0.023 | 0.28 ± 0.081 | 0.32 ± 0.061 | 0.39 ± 0.092 | 0.36 ± 0.092 | 0.33 ± 0.104 | 0.46 ± 0.056 | 0.37 ± 0.099 | 0.47 ± 0.011 | 0.47 ± 0.064 | 0.52 ± 0.060 | 1.48 ± 0.121 | 1.54 ± 0.081 | 1.50 ± 0.012 | 1.52 ± 0.117 | 1.46 ± 0.150
